Laboratory results taken from PubChem BioAssay AID1963982 (Molecular Pharmacology Branch, DTP, NCI, 2024).

System: 313798-341-R-J2-PDC spheroids, viability
Test: Anticancer human tumor 313798-341-R-J2-PDC patient-derived cervical squamous cell carcinoma cell line growth inhibition [PI3K]
Conditions: spheroids with HUVEC and MSC; for IC50: curve of first compound; for viability, T/C: stronger effect = lower value
In short: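 Stroma-containing spheroids: tumor line, pooled-donor HUVEC, hMSC. Treatments: targeted agents with PI3K inhibitors. Dosing: clinically relevant, half-log spacing, 10 microM ceiling without known Cmax. Read-out: cell viability.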

[1] = second compound 0.00316 µM, first compound 0.0316 µM
[2] = second compound 0.00316 µM, first compound 0.1 µM
[3] = second compound 0.00316 µM, first compound 0.316 µM
[4] = second compound 0.00316 µM, first compound 1 µM
[5] = second compound 0.00316 µM, first compound 3.16 µM
[6] = second compound 0.00316 µM, first compound 10 µM
[7] = second compound 0.01 µM, first compound 0.0316 µM
[8] = second compound 0.01 µM, first compound 0.1 µM
[9] = second compound 0.01 µM, first compound 0.316 µM
[10] = second compound 0.01 µM, first compound 1 µM
[11] = second compound 0.01 µM, first compound 3.16 µM
[12] = second compound 0.01 µM, first compound 10 µM
[13] = second compound 0.0316 µM, first compound 0.0316 µM
[14] = second compound 0.0316 µM, first compound 0.1 µM
[15] = second compound 0.0316 µM, first compound 0.316 µM
[16] = second compound 0.0316 µM, first compound 1 µM
[17] = second compound 0.0316 µM, first compound 3.16 µM
[18] = second compound 0.0316 µM, first compound 10 µM
[19] = second compound 0.1 µM, first compound 0.0316 µM
[20] = second compound 0.1 µM, first compound 0.1 µM
[21] = second compound 0.1 µM, first compound 0.316 µM
[22] = second compound 0.1 µM, first compound 1 µM
[23] = second compound 0.1 µM, first compound 3.16 µM
[24] = second compound 0.1 µM, first compound 10 µM
[25] = second compound 0.316 µM, first compound 0.0316 µM
[26] = second compound 0.316 µM, first compound 0.1 µM
[27] = second compound 0.316 µM, first compound 0.316 µM
[28] = second compound 0.316 µM, first compound 1 µM
[29] = second compound 0.316 µM, first compound 3.16 µM
[30] = second compound 0.316 µM, first compound 10 µM
[31] = second compound 1 µM, first compound 0.0316 µM
[32] = second compound 1 µM, first compound 0.1 µM
[33] = second compound 1 µM, first compound 0.316 µM
[34] = second compound 1 µM, first compound 1 µM
[35] = second compound 1 µM, first compound 3.16 µM
[36] = second compound 1 µM, first compound 10 µM
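Note: spheroids exposed to compounds for seven days.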
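Throughout, for viability, T/C: 100% = DMSO vehicle control viability.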

CC1(C)CCC(CN2CCN(c3ccc(C(=O)NS(=O)(=O)c4ccc(NCC5CCOCC5)c([N+](=O)[O-])c4)c(Oc4cnc5[nH]ccc5c4)c3)CC2)=C(c2ccc(Cl)cc2)C1 + COc1c(OCCCN2CCOCC2)ccc2c3n(c(=NC(=O)c4cnc(N)nc4)nc12)CCN3
IC50 (second compound 0.00316 µM): > 10000 nM | IC50 (second compound 0.01 µM): > 10000 nM | IC50 (second compound 0.0316 µM): > 10000 nM | IC50 (second compound 0.1 µM): < 31.6 nM | IC50 (second compound 0.316 µM): < 31.6 nM | IC50 (second compound 1 µM): < 31.6 nM | viability, T/C [1]: 98.3% | viability, T/C [2]: 107% | viability, T/C [3]: 113% | viability, T/C [4]: 101% | viability, T/C [5]: 87.7% | viability, T/C [6]: 102% | viability, T/C [7]: 105% | viability, T/C [8]: 110% | viability, T/C [9]: 88.7% | viability, T/C [10]: 96.5% | viability, T/C [11]: 66.1% | viability, T/C [12]: 95.2% | viability, T/C [13]: 70% | viability, T/C [14]: 77.1% | viability, T/C [15]: 69.3% | viability, T/C [16]: 75.8% | viability, T/C [17]: 47.4% | viability, T/C [18]: 73.2% | viability, T/C [19]: 44.4% | viability, T/C [20]: 41.4% | viability, T/C [21]: 40.3% | viability, T/C [22]: 37.8% | viability, T/C [23]: 35.1% | viability, T/C [24]: 41.2% | viability, T/C [25]: 14.6% | viability, T/C [26]: 14.6% | viability, T/C [27]: 16.5% | viability, T/C [28]: 14.2% | viability, T/C [29]: 13.3% | viability, T/C [30]: 15% | viability, T/C [31]: 9.63% | viability, T/C [32]: 9.06% | viability, T/C [33]: 11.1% | viability, T/C [34]: 10.6% | viability, T/C [35]: 12% | viability, T/C [36]: 11.2%

C[C@@H](NC(=O)c1ncnc(N)c1Cl)c1ncc(C(=O)Nc2cc(C(F)(F)F)c(Cl)cn2)s1 + COc1c(OCCCN2CCOCC2)ccc2c3n(c(=NC(=O)c4cnc(N)nc4)nc12)CCN3
IC50 (second compound 0.00316 µM): > 10000 nM | IC50 (second compound 0.01 µM): > 10000 nM | IC50 (second compound 0.0316 µM): > 10000 nM | IC50 (second compound 0.1 µM): 34.9 nM | IC50 (second compound 0.316 µM): < 31.6 nM | IC50 (second compound 1 µM): < 31.6 nM | viability, T/C [1]: 99.2% | viability, T/C [2]: 99% | viability, T/C [3]: 102% | viability, T/C [4]: 107% | viability, T/C [5]: 114% | viability, T/C [6]: 111% | viability, T/C [7]: 92.4% | viability, T/C [8]: 95.5% | viability, T/C [9]: 88.2% | viability, T/C [10]: 104% | viability, T/C [11]: 104% | viability, T/C [12]: 103% | viability, T/C [13]: 73.6% | viability, T/C [14]: 84.1% | viability, T/C [15]: 84.4% | viability, T/C [16]: 89.9% | viability, T/C [17]: 97.2% | viability, T/C [18]: 96.9% | viability, T/C [19]: 54% | viability, T/C [20]: 45.5% | viability, T/C [21]: 46.5% | viability, T/C [22]: 48% | viability, T/C [23]: 50.5% | viability, T/C [24]: 46.4% | viability, T/C [25]: 17.9% | viability, T/C [26]: 20.6% | viability, T/C [27]: 19.9% | viability, T/C [28]: 19.6% | viability, T/C [29]: 23.1% | viability, T/C [30]: 16.5% | viability, T/C [31]: 11.7% | viability, T/C [32]: 12.9% | viability, T/C [33]: 13.2% | viability, T/C [34]: 13.3% | viability, T/C [35]: 14.5% | viability, T/C [36]: 12.5%
